Results on 2 compounds are retold here after PMC11713119, “Optimizing metabolic stability of phosphodiesterase 5 inhibitors: Discovery of a potent N‐(pyridin‐3‐ylmethyl)quinoline derivative targeting synaptic plasticity” (Alzheimer's & Dementia, 2025).

Structures are written as SMILES.

The target in this experiment is T1, Phosphodiesterase 5 (PDE5) (Homo sapiens, UniProt O76074).
T1 construct: gene PDE5A
Kind of experiment: PDE5 inhibition IC50 (assay details not given). It is filed as biochemical.

In the case of `COc1ccc(CNc2c(CO)cnc3c(C4CC4)cc(C#N)cc23)cn1` [4b, 8‐cyclopropyl‐3‐(hydroxymethyl)‐4‐(((6‐methoxypyridin‐3‐yl)methyl)amino)quinoline‐6‐carbonitrile], the IC50 (as a rule, the concentration at which inhibition is half-maximal) is 20 nM.
With `COc1ccc(CNc2c(CO)cnc3c(C4CC4)cc(C#N)cc23)cc1Cl` [7a, 4‐((3‐chloro‐4‐methoxybenzyl)amino)‐8‐cyclopropyl‐3‐(hydroxymethyl)quinoline‐6‐carbonitrile], half-maximal inhibition (IC50) required 0.27 nM.
